Test results: ChEMBL document CHEMBL5500332, “Structure-based approaches for the design of 6-aryl-1-(3,4,5-trimethoxyphenyl)-1H-benzo[d][1,2,3]triazoles as tubulin polymerization inhibitors” (Eur J Med Chem, 2024)
Active and inactive are the calls of the source. The calls are words filed in the database; no cut-off is given here.

Key:
A549 = assay: Antiproliferative activity against human A549 cells measured after 72 hrs by MTT assay; type: functional, cell-based; settings: A549, 72 h
MCF7 [1] = assay: Antiproliferative activity against human MCF7 cells measured after 72 hrs by MTT assay; type: functional, cell-based; settings: MCF7, 72 h
SGC-7901 = assay: Antiproliferative activity against human SGC-7901 cells measured after 72 hrs by MTT assay; type: functional, cell-based; settings: SGC-7901, 72 h
4T1 = assay: Antitumor activity against mouse 4T1 cells xenografted in BALB/c mouse model assessed as tumor growth inhibition rate at 10 mg/kg, iv measured every two days for 2 weeks relative to control; type: functional; settings: 4T1, 336 h, read-out: TGI
Tubulin (Homo sapiens) = Tubulin (Homo sapiens) (UniProt P68371+Q9H4B7+P0DPH7+P68366+Q13509+Q71U36+P04350+Q3ZCM7+P07437+P68363+Q9BQE3+Q6PEY2+Q13885+Q9BVA1+Q9BUF5); assay: Inhibition of tubulin polymerization (unknown origin) at 3 uM measured every 60 secs for 90 mins by microplate reader based analysis; type: protein-complex assay
MCF7 [2] = assay: Induction of cell cycle arrest in human MCF7 cells assessed as accumulation of cells at S phase at 30 nM incubated for 24 hrs by PI staining based flow cytometry analysis (reference value: 14.58%); type: functional
MCF7 [3] = assay: Induction of cell cycle arrest in human MCF7 cells assessed as accumulation of cells at G2/M phase at 30 nM incubated for 24 hrs by PI staining based flow cytometry analysis (reference value: 14.36%); type: functional
MCF7 [4] = assay: Induction of cell cycle arrest in human MCF7 cells assessed as accumulation of cells at S phase at 15 nM incubated for 24 hrs by PI staining based flow cytometry analysis (reference value: 14.58 %); type: functional
MCF7 [5] = assay: Induction of cell cycle arrest in human MCF7 cells assessed as accumulation of cells at G2/M phase at 15 nM incubated for 24 hrs by PI staining based flow cytometry analysis (reference value: 14.36%); type: functional
MCF7 [6] = assay: Induction of cell cycle arrest in human MCF7 cells assessed as accumulation of cells at G0/G1 phase at 30 nM incubated for 24 hrs by PI staining based flow cytometry analysis (reference value: 69.67%); type: functional
MCF7 [7] = assay: Induction of cell cycle arrest in human MCF7 cells assessed as accumulation of cells at G0/G1 phase at 15 nM incubated for 24 hrs by PI staining based flow cytometry analysis (reference value: 69.67%); type: functional

IC50 (A549) [nM] | IC50 (MCF7 [1]) [nM] | IC50 (SGC-7901) [nM] | SMILES | also measured
1400 | 330 | 529 | COc1cc(-n2nnc3ccc(-c4ccc(C)cc4)cc32)cc(OC)c1OC | –
4500 | 2280 | 1480 | COc1cc(-n2nnc3ccc(-c4cccc(Cl)c4)cc32)cc(OC)c1OC | –
5110 | 1300 | 4240 | COc1cc(-n2nnc3ccc(-c4ccc(O)cc4)cc32)cc(OC)c1OC | –
2570 | 3090 | 4850 | COc1cc(-n2nnc3ccc(-c4ccc(C(C)=O)cc4)cc32)cc(OC)c1OC | –
3750 | 1520 | 1460 | COc1cc(-n2nnc3ccc(-c4ccc(Cl)cc4)cc32)cc(OC)c1OC | –
2150 | 1250 | 789 | COc1cc(-n2nnc3ccc(-c4ccc(F)cc4)cc32)cc(OC)c1OC | –
> 10000 | 3100 | 3170 | COc1cc(-n2nnc3ccc(-c4ccc([N+](=O)[O-])cc4)cc32)cc(OC)c1OC | –
1400 | 212 | 447 | COc1ccc(-c2ccc3nnn(-c4cc(OC)c(OC)c(OC)c4)c3c2)cc1 | –

Further lines, the molecule ahead of its results:

SMILES | IC50 (A549) [nM] | IC50 (MCF7 [1]) [nM] | IC50 (SGC-7901) [nM] | also measured
COc1cc(-n2nnc3ccc(-c4ccccc4)cc32)cc(OC)c1OC | 1980 | 242 | 1820 | –
COc1cc(-n2nnc3ccc(-c4cccc(F)c4)cc32)cc(OC)c1OC | 7240 | 7490 | 2980 | –
COc1ccc(-c2ccc3ncn(-c4cc(OC)c(OC)c(OC)c4)c3c2)cc1O | 210 | 42 | 45 | –
COc1ccccc1-c1ccc2nnn(-c3cc(OC)c(OC)c(OC)c3)c2c1 | 6500 | 3270 | 1970 | –
COc1cc(-n2nnc3ccc(-c4ccccc4Cl)cc32)cc(OC)c1OC | 9560 | 8360 | 6340 | –
CC(=O)O[C@H]1C(=O)[C@@]2(C)[C@H]([C@H](OC(=O)c3ccccc3)[C@]3(O)C[C@H](OC(=O)[C@H](O)[C@@H](NC(=O)c4ccccc4)c4ccccc4)C(C)=C1C3(C)C)[C@]1(OC(C)=O)CO[C@@H]1C[C@@H]2O [PACLITAXEL] | – | – | – | inhibition in vivo at 10 mg/kg (4T1): 72.1%; inhibition (Tubulin (Homo sapiens)): inactive
COc1cc(-c2ccc3nnn(-c4cc(OC)c(OC)c(OC)c4)c3c2)cc(OC)c1OC | 4790 | > 10000 | > 10000 | –
COc1cc(-n2nnc3ccc(-c4ccc(Cl)cc4Cl)cc32)cc(OC)c1OC | > 10000 | 6570 | 2840 | –
COc1cc2c(c(OC)c1OC)-c1ccc(OC)c(=O)cc1[C@@H](NC(C)=O)CC2 [COLCHICINE] | – | 30 | 12 | Activity (MCF7 [2]): 28.2%; Activity (MCF7 [3]): 63.44%; Activity (MCF7 [4]): 24.77%; Activity (MCF7 [5]): 35.05%; Activity (MCF7 [6]): 8.87%; Activity (MCF7 [7]): 37.19%
COc1cc(-n2nnc3ccc(-c4ccc(C)cc4F)cc32)cc(OC)c1OC | 1070 | 92 | 893 | –
COc1cc(-n2nnc3ccc(-c4cccc(O)c4)cc32)cc(OC)c1OC | 3530 | 257 | 1200 | –
COc1cc(-n2nnc3ccc(-c4cccc([N+](=O)[O-])c4)cc32)cc(OC)c1OC | 1940 | 3800 | 6670 | –
COc1cc(OC)cc(-n2nnc3ccc(-c4ccc(OC)c(O)c4)cc32)c1 | 6460 | 726 | 1070 | –
COc1cccc(-c2ccc3nnn(-c4cc(OC)c(OC)c(OC)c4)c3c2)c1 | 6850 | 3280 | 8120 | –
COc1cc(-n2nnc3ccc(-c4cccc(C)c4)cc32)cc(OC)c1OC | 2450 | 212 | 412 | –
COc1ccc(-c2ccc3nnn(-c4ccc(OC)c(OC)c4)c3c2)cc1O | 3930 | 346 | 188 | –
CCOc1ccc(-c2ccc3nnn(-c4cc(OC)c(OC)c(OC)c4)c3c2)cc1 | 2690 | 8250 | > 10000 | –
COc1cc(-n2nnc3ccc(-c4ccc(C(F)(F)F)cc4)cc32)cc(OC)c1OC | 5070 | 3390 | 6600 | –
